Measurements taken from patent US7884083B2, “Immunomodulatory compositions, methods of making, and methods of use thereof” (Dynavax Technologies Corporation, priority 2002, dated 2011).

Experiments:
[1] = hydrophobic/lipophilic balance value; cited from earlier work
[2] = test system: human peripheral blood lymphocytes (PBMCs); assay: hPBMC assay: IFN-γ and IFN-α production by human PBMCs (ELISA); assay type: cell-based; details: for immunomodulatory activity in the hPBMC assay: result in words; for IFN-γ/α-enhancing activity in comparison to PMXB or CLN: in words, Table 10 experiment
[3] = dodecyl spacer measured as dialcohol precursor; cited from earlier work
[4] = test system: plasmacytoind dendritic cells (PDCs) of human PBMCs; assay: Intracellular staining and FACS analysis of IFN-α production from PDCs; assay type: cell-based; details: double-staining cells as percentage of total PBMCs, 20 μg/mL oligonucleotide, 100 μg/mL PMXB, six hours
Procedure: Intracellular staining assays and FACS analysis were used to examine IFN-α production from the plasmacytoind dendritic cells (PDCs) of human PBMCs. […] For these assays, the IMC or -ISS and the polymyxin were added separately to the PBMC cell culture which contained human serum albumin. […] After the six hours, the cells were stained with a fluorescently labeled PDC marker, anti-BCDA-2 labeled with FITC, and with anti-IFN-α labeled with PE. FACS analysis of the labeled cells was performed.

[5] = Donor 28232, no Time given, 20 μg/ml oligonucleotide, 100 μg/ml polymyxin
[6] = Donor 28233, no Time given, 20 μg/ml oligonucleotide, 100 μg/ml polymyxin
[7] = Mean (Table 6), no Time given, 20 μg/ml oligonucleotide, 100 μg/ml polymyxin
[8] = Table 3, Donor 1, PMXB 100 μg/ml, AMTB 10 μg/ml, serum containing medium
[9] = Table 3, Donor 2, PMXB 100 μg/ml, AMTB 10 μg/ml, serum containing medium
[10] = Table 3, Mean, PMXB 100 μg/ml, AMTB 10 μg/ml, serum containing medium
[11] = Donor 28212, Controls, 20 μg/ml oligonucleotide, 100 μg/ml polymyxin
[12] = Donor 28213, Controls, 20 μg/ml oligonucleotide, 100 μg/ml polymyxin
[13] = Donor # 20, 20 μg/ml oligonucleotide, 100 μg/ml PMXB, 24 hours
[14] = Donor # 37, 20 μg/ml oligonucleotide, 100 μg/ml PMXB, 24 hours
[15] = Donor # 75, 20 μg/ml oligonucleotide, 100 μg/ml PMXB, 24 hours
[16] = Donor # 86, 20 μg/ml oligonucleotide, 100 μg/ml PMXB, 24 hours
[17] = Donor # 87, 20 μg/ml oligonucleotide, 100 μg/ml PMXB, 24 hours
[18] = Donor # 88, 20 μg/ml oligonucleotide, 100 μg/ml PMXB, 24 hours
[19] = Donor # 89, 20 μg/ml oligonucleotide, 100 μg/ml PMXB, 24 hours
[20] = Donor # 90, 20 μg/ml oligonucleotide, 100 μg/ml PMXB, 24 hours
[21] = Donor # 91, 20 μg/ml oligonucleotide, 100 μg/ml PMXB, 24 hours
[22] = Donor # 95, 20 μg/ml oligonucleotide, 100 μg/ml PMXB, 24 hours
[23] = Donor # 96, 20 μg/ml oligonucleotide, 100 μg/ml PMXB, 24 hours
[24] = Donor # 97, 20 μg/ml oligonucleotide, 100 μg/ml PMXB, 24 hours
[25] = Mean (Table 4), Controls, 20 μg/ml oligonucleotide, 100 μg/ml polymyxin
[26] = Mean of donors (Table 2), 20 μg/ml oligonucleotide, 100 μg/ml PMXB, 24 hours
[27] = Table 9, Mean, 20 μg/ml oligonucleotide, 100 μg/ml polymyxin
[28] = Table 9, donor 149, 20 μg/ml oligonucleotide, 100 μg/ml polymyxin
[29] = Table 9, donor 208, 20 μg/ml oligonucleotide, 100 μg/ml polymyxin
[30] = Donor 198, no Time given, 20 μg/ml oligonucleotide
[31] = Donor 199, no Time given, 20 μg/ml oligonucleotide
[32] = Donor # 9, 20 μg/ml oligonucleotide, 100 μg/ml PMXB, 24 hours
[33] = Donor # 94, 20 μg/ml oligonucleotide, 100 μg/ml PMXB, 24 hours
[34] = Mean (Table 5), no Time given, 20 μg/ml oligonucleotide
[35] = Table 10, donor 1, 20 μg/ml oligonucleotide, 100 μg/ml polymyxin derivative added separately, 24 hours
[36] = Table 10, donor 2, 20 μg/ml oligonucleotide, 100 μg/ml polymyxin derivative added separately, 24 hours
[37] = Table 10, donor 3, 20 μg/ml oligonucleotide, 100 μg/ml polymyxin derivative added separately, 24 hours
[38] = Table 10, donor 4, 20 μg/ml oligonucleotide, 100 μg/ml polymyxin derivative added separately, 24 hours
[39] = Table 10, donor 5, 20 μg/ml oligonucleotide, 100 μg/ml polymyxin derivative added separately, 24 hours
[40] = Table 10, donor 6, 20 μg/ml oligonucleotide, 100 μg/ml polymyxin derivative added separately, 24 hours
[41] = Table 10, mean of 6 donors, 20 μg/ml oligonucleotide, 100 μg/ml polymyxin derivative added separately, 24 hours

polyoxyethylene(20) sorbitan trioleate [Tween 85]
HLB [1]: 11 | IFN-Υ [2, 5]: 15 pg/mL | IFN-α [2, 5]: 66 pg/mL | IFN-Υ [2, 6]: 6 pg/mL | IFN-α [2, 6]: 55 pg/mL | IFN-Υ [2, 7]: 11 pg/mL | IFN-α [2, 7]: 60 pg/mL

OCCCCCCCCCCCCO [1,12-dihydroxydodecane]
solubility [3]: < 5000 µg/mL

5′-TCGTCGAACGTTCGAGATGAT-3′ [SEQ ID NO: 39]
BCDA-2/IFN-α d.p. % ([4]; donor 1): 0.08% | BCDA-2/IFN-α d.p. % ([4]; donor 2): 0.14% | BCDA-2/IFN-α d.p. % ([4]; mean): 0.11%

C[C@@H]1[C@H](O)[C@@H](C)/C=C/C=C/C=C/C=C/C=C/C=C/C=C/[C@H](O[C@@H]2O[C@H](C)[C@@H](O)[C@H](N)[C@@H]2O)C[C@@H]2O[C@](O)(C[C@@H](O)C[C@@H](O)[C@H](O)CC[C@@H](O)C[C@@H](O)CC(=O)O[C@H]1C)C[C@H](O)[C@H]2C(=O)O [AMTB, amphotericin B]
IFN-α [2, 8]: 0 pg/mL | IFN-γ [2, 8]: 0 pg/mL | IFN-α [2, 9]: 0 pg/mL | IFN-γ [2, 9]: 0 pg/mL | IFN-α [2, 10]: 0 pg/mL | IFN-γ [2, 10]: 0 pg/mL | immunomodulatory activity in the hPBMC assay [2]: no activity on its own

polymyxin B nonapeptide [PMXB-9]
IFN-γ/α-enhancing activity in comparison to PMXB or CLN [2]: substantially reduced

5′-TGCTTGCAAGCTTGCAAGCA-3′ (listed as DNA, chemistry not given here) [−ISS SEQ ID NO: 38, reference compound]
BCDA-2/IFN-α d.p. % ([4]; donor 1): 0.00% | BCDA-2/IFN-α d.p. % ([4]; donor 2): 0.00% | BCDA-2/IFN-α d.p. % ([4]; mean): 0.00%

Polymyxin B [PMXB]
IFN-α [2, 11]: 268 pg/mL | IFN-γ [2, 11]: 5 pg/mL | IFN-α [2, 12]: 213 pg/mL | IFN-γ [2, 12]: 4 pg/mL | IFN-Υ [2, 5]: 8 pg/mL | IFN-α [2, 5]: 16 pg/mL | IFN-Υ [2, 6]: 7 pg/mL | IFN-α [2, 6]: 84 pg/mL | IFN-γ [2, 13]: 20 pg/mL | IFN-α [2, 14]: 0 pg/mL | IFN-γ [2, 14]: 228 pg/mL | IFN-γ [2, 15]: 6 pg/mL | IFN-α [2, 16]: 353 pg/mL | IFN-γ [2, 16]: 23 pg/mL | IFN-α [2, 17]: 326 pg/mL | IFN-γ [2, 17]: 33 pg/mL | IFN-α [2, 18]: 33 pg/mL | IFN-γ [2, 18]: 112 pg/mL | IFN-α [2, 19]: 9 pg/mL | IFN-γ [2, 19]: 3 pg/mL | IFN-α [2, 20]: 0 pg/mL | IFN-γ [2, 20]: 0 pg/mL | IFN-α [2, 21]: 0 pg/mL | IFN-γ [2, 21]: 47 pg/mL | IFN-α [2, 22]: 0 pg/mL | IFN-γ [2, 22]: 17 pg/mL | IFN-γ [2, 23]: 55 pg/mL | IFN-γ [2, 24]: 21 pg/mL | IFN-α [2, 25]: 241 pg/mL | IFN-γ [2, 25]: 5 pg/mL | IFN-Υ [2, 7]: 7 pg/mL | IFN-α [2, 7]: 50 pg/mL | IFN-α [2, 26]: 90 pg/mL | IFN-γ [2, 26]: 47 pg/mL | IFN-α [2, 8]: 1 pg/mL | IFN-γ [2, 8]: 23 pg/mL | IFN-α [2, 9]: 0 pg/mL | IFN-γ [2, 9]: 6 pg/mL | IFN-α [2, 10]: 0 pg/mL | IFN-γ [2, 10]: 15 pg/mL | IFN-Υ [2, 27]: 127 pg/mL | IFN-α [2, 27]: 32 pg/mL | IFN-Υ [2, 28]: 195 pg/mL | IFN-α [2, 28]: 32 pg/mL | IFN-Υ ([2]; Table 9, donor 206, 20 μg/ml oligonucleotide, 100 μg/ml polymyxin): 14 pg/mL | IFN-Υ [2, 29]: 171 pg/mL | IFN-α [2, 29]: 32 pg/mL | IFN-α ([2]; Table 9, donor 209, 20 μg/ml oligonucleotide, 100 μg/ml polymyxin): 32 pg/mL | immunomodulatory activity in the hPBMC assay [2]: no immunomodulatory activity on its own

colistin methanesulfonate [CMS]
IFN-γ/α-enhancing activity in comparison to PMXB or CLN [2]: substantially reduced

5′-TGACTGTGAACCTTAGAGATGA-3′ (DNA, all phosphorothioate, methylation of C not given here) [−ISS]
IFN-α [2, 30]: 151 pg/mL | IFN-γ [2, 30]: 5 pg/mL | IFN-α [2, 31]: 279 pg/mL | IFN-γ [2, 31]: 18 pg/mL | IFN-α [2, 11]: 225 pg/mL | IFN-γ [2, 11]: 5 pg/mL | IFN-α [2, 12]: 156 pg/mL | IFN-γ [2, 12]: 7 pg/mL | IFN-α [2, 32]: 0 pg/mL | IFN-γ [2, 32]: 0 pg/mL | IFN-γ [2, 13]: 4 pg/mL | IFN-α [2, 14]: 0 pg/mL | IFN-γ [2, 14]: 5 pg/mL | IFN-γ [2, 15]: 1 pg/mL | IFN-α [2, 16]: 15 pg/mL | IFN-γ [2, 16]: 12 pg/mL | IFN-α [2, 17]: 0 pg/mL | IFN-γ [2, 17]: 12 pg/mL | IFN-α [2, 18]: 19 pg/mL | IFN-γ [2, 18]: 70 pg/mL | IFN-α [2, 19]: 17 pg/mL | IFN-γ [2, 19]: 7 pg/mL | IFN-α [2, 20]: 0 pg/mL | IFN-γ [2, 20]: 0 pg/mL | IFN-α [2, 21]: 0 pg/mL | IFN-γ [2, 21]: 30 pg/mL | IFN-α [2, 33]: 0 pg/mL | IFN-γ [2, 33]: 0 pg/mL | IFN-α [2, 22]: 0 pg/mL | IFN-γ [2, 22]: 4 pg/mL | IFN-γ [2, 23]: 9 pg/mL | IFN-γ [2, 24]: 5 pg/mL | IFN-α [2, 25]: 191 pg/mL | IFN-γ [2, 25]: 6 pg/mL | IFN-α [2, 34]: 215 pg/mL | IFN-γ [2, 34]: 12 pg/mL | IFN-α [2, 26]: 5 pg/mL | IFN-γ [2, 26]: 11 pg/mL | IFN-α [2, 8]: 3 pg/mL | IFN-γ [2, 8]: 1 pg/mL | IFN-α [2, 9]: 0 pg/mL | IFN-γ [2, 9]: 0 pg/mL | IFN-α [2, 10]: 1 pg/mL | IFN-γ [2, 10]: 0 pg/mL | IFN-α [2, 35]: 52 pg/mL | IFN-γ [2, 35]: 2 pg/mL | IFN-α [2, 36]: 52 pg/mL | IFN-γ [2, 36]: 2 pg/mL | IFN-α [2, 37]: 52 pg/mL | IFN-γ [2, 37]: 2 pg/mL | IFN-α [2, 38]: 52 pg/mL | IFN-γ [2, 38]: 2 pg/mL | IFN-α [2, 39]: 26 pg/mL | IFN-γ [2, 39]: 10 pg/mL | IFN-α [2, 40]: 26 pg/mL | IFN-γ [2, 40]: 2 pg/mL | IFN-α [2, 41]: 43 pg/mL | IFN-γ [2, 41]: 3 pg/mL

polyethylene glycol sorbitan monooleate
HLB [1]: 15.4
